Measurements reported in patent US12534748B2, “Engineered beta-subunit of tryptophan synthase for production of non-canonical amino acids” (California Institute of Technology, priority 2015, dated 2026).

Target: T1, Pyrococcus furiosus tryptophan synthase complex PfTrpS (PfTrpA + PfTrpB) (Pyrococcus furiosus, UniProt Q8U093)
T1 sequence (Q8U093 with tags, fused parts or gaps): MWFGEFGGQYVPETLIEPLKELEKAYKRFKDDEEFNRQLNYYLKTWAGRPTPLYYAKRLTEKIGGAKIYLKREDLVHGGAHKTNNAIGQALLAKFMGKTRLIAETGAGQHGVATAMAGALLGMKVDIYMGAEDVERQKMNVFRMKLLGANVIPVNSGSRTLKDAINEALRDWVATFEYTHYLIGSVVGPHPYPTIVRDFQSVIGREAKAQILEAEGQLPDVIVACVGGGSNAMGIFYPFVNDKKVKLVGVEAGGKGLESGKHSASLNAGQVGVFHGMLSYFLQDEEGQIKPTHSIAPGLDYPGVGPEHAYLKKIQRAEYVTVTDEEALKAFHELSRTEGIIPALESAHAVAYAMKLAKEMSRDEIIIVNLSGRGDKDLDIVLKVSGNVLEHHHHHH
T1 sequence (Q8U094 1-248 partner): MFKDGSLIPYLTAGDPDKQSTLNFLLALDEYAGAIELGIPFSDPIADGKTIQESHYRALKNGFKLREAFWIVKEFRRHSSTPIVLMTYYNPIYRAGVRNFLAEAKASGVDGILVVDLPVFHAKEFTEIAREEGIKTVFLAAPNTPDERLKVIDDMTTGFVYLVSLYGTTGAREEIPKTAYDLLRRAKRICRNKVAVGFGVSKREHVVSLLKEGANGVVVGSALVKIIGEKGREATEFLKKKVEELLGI
Experiment: Tryptophan formation from L-serine and indole, kinetics of PfTrpS complex
Type: biochemical
Experimental: Cloning, Expression, and Purification of PfTrpA and PfTrpB. The genes encoding PfTrpB (UNIPROT ID Q8U093) and PfTrpA (UNIPROT ID Q8U094) were obtained as gBlocks and cloned into pET22(b)+ for expression in E. coli BL21 E. cloni EXPRESS cells (Lucigen). Heterologous protein expression of PfTrpA and PfTrpB was performed in Terrific Broth with 100 μg/mL ampicillin (TBamp) and induced with 500 mM IPTG (final concentration 1 mM). PfTrpB was purified via a HisTrap HP column. PfTrpA was purified via a Q HP HiTrap column (flow-through), followed by ammonium sulfate precipitation, and hydrophobic interaction chromatography on a phenyl Sepharose HP HiTrap column (FIG. 3).
Kinetics and UV-Vis Spectroscopy.
Selection of the Parent Enzyme, TrpB, from Pyrococcus furiosus.

## c1ccc2[nH]ccc2c1 [indole]
75° C.
  kcat: 1.0 s⁻¹
PfTrpS relative to PfTrpB
  increase in catalytic efficiency for indole upon complexation: 12 fold
read-out: KM, indole, 75° C.
  Km: 20 µM
